Data published in patent US9951467B2, “Bacteriostatically treating method” (JNC CORPORATION, priority 2009, dated 2018).

Experiments:
E. coli = assay: Antibacterial test on fiber samples immersed in polycationic polypeptide aqueous solution, bactericidal activity value (L); format: cell-based, Escherichia coli
Source text: (§1) Here, the bactericidal activity value (L) is defined by the following equation (for details, see the Approval Standard for Antibacterial and Deodorant Textile Products set forth by the Japan Textile Evaluation Technology Council (JTETC)). When this value (L) is ≥0, the textile product is considered to have an antibacterial effect, and it becomes eligible to be approved as a bacteriostatically treated textile product (with SEK Mark).
(§2) L (bactericidal activity value)=(Ma−Mc)
(§3) Ma: Average common logarithm value of the viable cell count or the ATP amount, which was measured for three samples immediately after the inoculation thereof onto a standard cloth.
(§4) Mc: Average common logarithm value of the viable cell count or the ATP amount, which was measured for three samples after 18 hours of culturing on an antibacterially treated cloth.
(§5) Threads, each of which was cut into 0.4 g in weight, were used as the fiber samples. Into a polycationic polypeptide aqueous solution of a prescribed concentration which was heated to a prescribed temperature (25, 50 or 75° C.), the samples were immersed for a prescribed period of time. The followings were used as the polycationic polypeptide.
(§6) Then, the fiber samples were washed by a simple method which was modified from the washing method according to JIS L-0217 103 (“Antimicrobial Agent of SENKA Corporation”; Everything about antimicrobial agents, p. 595-598, 1997, Sen-i Co., Ltd.), and the thus washed samples were dried in the air. The washing method was carried out by the following steps.
(§7) (1) Water having a temperature of 40° C. is filled into the washer water tank up to the highest line for the water level. To this water, “JAFET standard detergent (polyoxyethylene alkyl ether)” is added at a ratio of 40 mL of the detergent to 30 L of water to obtain washing solution.
(§8) (2) The fiber samples are placed into the washing solution in such a manner that the bath ratio (the weight ratio of the fibers and the washing solution at the time of washing of the fibers after the immersion) becomes 1:30, and the washing machine is operated for 25 minutes.
(§9) (3) The fiber samples are dehydrated by a dehydrator. The dehydration is carried out for 7 to 8 minutes.
(§10) (4) The washing solution is replaced with fresh water at room temperature, and rinsing and washing are performed in the filled water for 4 minutes at the same bath ratio.
(§11) (5) The fiber samples are dehydrated by a dehydrator. The dehydration is carried out for 7 to 8 minutes.
(§12) (6) Rinsing and washing are performed with running water for 2 minutes.
(§13) (7) Considering the above (1) to (6) as 5 washings, these steps are repeated twice to have the fiber samples be “washed 10 times”.
(§14) (8) The fiber samples are dehydrated by a dehydrator.
(§15) A bacterial suspension which was cultured in normal broth at 30° C. for 18 hours was mixed and diluted to prepare a diluted bacterial suspension having a concentration of 10^6 cells/mL. Placed into a vial was 0.4 g of fiber sample which was not washed or washed 10 times. Thereto inoculated was 400 μL of the diluted bacterial suspension, which was then allowed to soak into the sample, and the sample was incubated at 37° C. After 18 hours, 20 mL of physiological saline was added to the vial and the resultant was stirred using a mixer (5 seconds×5 times) to suspend the bacterial cells. The thus obtained suspension was diluted as appropriate, and the number of bacterium was counted to calculate the bactericidal activity value (L) based on the aforementioned equation. Here, the tested bacteria were E. coli and S. aureus.

S. aureus = assay: as above; format: cell-based, Staphylococcus aureus
Source text: as §1, §2, §3, §4, §5, §6, §7, §8, §9, §10, §11, §12, §13, §14, §15

[1] = Acryl 100% thread, immersion 25° C., 2 hours
[2] = Acryl 100% thread, immersion 25° C., 3 hours
[3] = Acryl 100% thread, immersion 25° C., 24 hours
[4] = Cotton 100% thread, immersion 50° C., 2 hours
[5] = Cotton 100% thread, immersion 50° C., 3 hours
[6] = Cotton 100% thread, immersion 50° C., 24 hours
[7] = Cotton 100% thread, immersion 75° C., 2 hours
[8] = Cotton 100% thread, immersion 75° C., 3 hours
[9] = Cotton 100% thread, immersion 75° C., 24 hours
[10] = Hemp 100% thread, immersion 25° C., 2 hours
[11] = Hemp 100% thread, immersion 25° C., 3 hours
[12] = Hemp 100% thread, immersion 25° C., 24 hours
[13] = Nylon 100% thread, immersion 25° C., 2 hours
[14] = Nylon 100% thread, immersion 25° C., 3 hours
[15] = Nylon 100% thread, immersion 25° C., 24 hours
[16] = Polyester 100% thread, immersion 25° C., 2 hours
[17] = Polyester 100% thread, immersion 25° C., 3 hours
[18] = Polyester 100% thread, immersion 25° C., 24 hours
[19] = Rayon 100% thread, immersion 25° C., 2 hours
[20] = Rayon 100% thread, immersion 25° C., 3 hours
[21] = Rayon 100% thread, immersion 25° C., 24 hours
[22] = Wool 100% thread, immersion 50° C., 2 hours
[23] = Wool 100% thread, immersion 50° C., 3 hours
[24] = Wool 100% thread, immersion 50° C., 24 hours
[25] = Wool 100% thread, immersion 75° C., 2 hours
[26] = Wool 100% thread, immersion 75° C., 3 hours
[27] = Wool 100% thread, immersion 75° C., 24 hours
[28] = cotton thread and wool, immersion 50° C., 2 hours or more (text summary of Table 1)
[29] = threads of various materials, immersion 25° C., 2 hours or more (text summary of Table 2)

ϵ-polylysine [ε-polylysine]
ε-polylysine concentration at which L ≥ 0 was attained, E. coli (E. coli; [1]): 500 ppm | ε-polylysine concentration at which L ≥ 0 was attained, E. coli (E. coli; [2]): 500 ppm | ε-polylysine concentration at which L ≥ 0 was attained, E. coli (E. coli; [3]): 250 ppm | ε-polylysine concentration at which L ≥ 0 was attained, E. coli (E. coli; [4]): 2,500 ppm | ε-polylysine concentration at which L ≥ 0 was attained, E. coli (E. coli; [5]): 2,500 ppm | ε-polylysine concentration at which L ≥ 0 was attained, E. coli (E. coli; [6]): 2,500 ppm | ε-polylysine concentration at which L ≥ 0 was attained, E. coli (E. coli; [7]): 2,500 ppm | ε-polylysine concentration at which L ≥ 0 was attained, E. coli (E. coli; [8]): 2,500 ppm | ε-polylysine concentration at which L ≥ 0 was attained, E. coli (E. coli; [9]): 2,500 ppm | ε-polylysine concentration at which L ≥ 0 was attained, E. coli (E. coli; [10]): 500 ppm | ε-polylysine concentration at which L ≥ 0 was attained, E. coli (E. coli; [11]): 500 ppm | ε-polylysine concentration at which L ≥ 0 was attained, E. coli (E. coli; [12]): 800 ppm | ε-polylysine concentration at which L ≥ 0 was attained, E. coli (E. coli; [13]): 500 ppm | ε-polylysine concentration at which L ≥ 0 was attained, E. coli (E. coli; [14]): 500 ppm | ε-polylysine concentration at which L ≥ 0 was attained, E. coli (E. coli; [15]): 250 ppm | ε-polylysine concentration at which L ≥ 0 was attained, E. coli (E. coli; [16]): 500 ppm | ε-polylysine concentration at which L ≥ 0 was attained, E. coli (E. coli; [17]): 500 ppm | ε-polylysine concentration at which L ≥ 0 was attained, E. coli (E. coli; [18]): 800 ppm | ε-polylysine concentration at which L ≥ 0 was attained, E. coli (E. coli; [19]): 500 ppm | ε-polylysine concentration at which L ≥ 0 was attained, E. coli (E. coli; [20]): 500 ppm | ε-polylysine concentration at which L ≥ 0 was attained, E. coli (E. coli; [21]): 250 ppm | ε-polylysine concentration at which L ≥ 0 was attained, E. coli (E. coli; [22]): 2,500 ppm | ε-polylysine concentration at which L ≥ 0 was attained, E. coli (E. coli; [23]): 2,500 ppm | ε-polylysine concentration at which L ≥ 0 was attained, E. coli (E. coli; [24]): 2,500 ppm | ε-polylysine concentration at which L ≥ 0 was attained, E. coli (E. coli; [25]): 2,500 ppm | ε-polylysine concentration at which L ≥ 0 was attained, E. coli (E. coli; [26]): 2,500 ppm | ε-polylysine concentration at which L ≥ 0 was attained, E. coli (E. coli; [27]): 2,500 ppm | concentration of ϵ-polylysine aqueous solution at which bacteriostatic effect against E. coli was attained (E. coli; [28]): 2,500 ppm | concentration of ϵ-polylysine aqueous solution at which bacteriostatic effect against E. coli was attained (E. coli; [29]): 500 ppm | ε-polylysine concentration at which L ≥ 0 was attained, S. aureus (S. aureus; [1]): 500 ppm | ε-polylysine concentration at which L ≥ 0 was attained, S. aureus (S. aureus; [2]): 500 ppm | ε-polylysine concentration at which L ≥ 0 was attained, S. aureus (S. aureus; [3]): 250 ppm | ε-polylysine concentration at which L ≥ 0 was attained, S. aureus (S. aureus; [4]): 500 ppm | ε-polylysine concentration at which L ≥ 0 was attained, S. aureus (S. aureus; [5]): 500 ppm | ε-polylysine concentration at which L ≥ 0 was attained, S. aureus (S. aureus; [6]): 500 ppm | ε-polylysine concentration at which L ≥ 0 was attained, S. aureus (S. aureus; [7]): 500 ppm | ε-polylysine concentration at which L ≥ 0 was attained, S. aureus (S. aureus; [8]): 500 ppm | ε-polylysine concentration at which L ≥ 0 was attained, S. aureus (S. aureus; [9]): 500 ppm | ε-polylysine concentration at which L ≥ 0 was attained, S. aureus (S. aureus; [10]): 500 ppm | ε-polylysine concentration at which L ≥ 0 was attained, S. aureus (S. aureus; [11]): 500 ppm | ε-polylysine concentration at which L ≥ 0 was attained, S. aureus (S. aureus; [12]): 250 ppm | ε-polylysine concentration at which L ≥ 0 was attained, S. aureus (S. aureus; [13]): 500 ppm | ε-polylysine concentration at which L ≥ 0 was attained, S. aureus (S. aureus; [14]): 500 ppm | ε-polylysine concentration at which L ≥ 0 was attained, S. aureus (S. aureus; [15]): 250 ppm | ε-polylysine concentration at which L ≥ 0 was attained, S. aureus (S. aureus; [16]): 500 ppm | ε-polylysine concentration at which L ≥ 0 was attained, S. aureus (S. aureus; [17]): 500 ppm | ε-polylysine concentration at which L ≥ 0 was attained, S. aureus (S. aureus; [18]): 250 ppm | ε-polylysine concentration at which L ≥ 0 was attained, S. aureus (S. aureus; [19]): 500 ppm | ε-polylysine concentration at which L ≥ 0 was attained, S. aureus (S. aureus; [20]): 500 ppm | ε-polylysine concentration at which L ≥ 0 was attained, S. aureus (S. aureus; [21]): 250 ppm | ε-polylysine concentration at which L ≥ 0 was attained, S. aureus (S. aureus; [22]): 500 ppm | ε-polylysine concentration at which L ≥ 0 was attained, S. aureus (S. aureus; [23]): 500 ppm | ε-polylysine concentration at which L ≥ 0 was attained, S. aureus (S. aureus; [24]): 500 ppm | ε-polylysine concentration at which L ≥ 0 was attained, S. aureus (S. aureus; [25]): 500 ppm | ε-polylysine concentration at which L ≥ 0 was attained, S. aureus (S. aureus; [26]): 500 ppm | ε-polylysine concentration at which L ≥ 0 was attained, S. aureus (S. aureus; [27]): 500 ppm | concentration of ϵ-polylysine aqueous solution at which bacteriostatic effect against S. aureus was attained (S. aureus; [28]): 500 ppm | concentration of ϵ-polylysine aqueous solution at which bacteriostatic effect against S. aureus was attained (S. aureus; [29]): 500 ppm
